Values after ≈ are worked out from the molar mass of the structure shown. Read-outs that look alike come from different tables or passages of the source.
How the values were obtained:
[1] = system: L1210 Leukämiezellen; assay: Colony formation of L1210 leukemia cells in soft agar (cytotoxicity in vitro); type: cell-based, Maus; conditions: for IC50: Mus musculus
Description: Die zytostatische Wirksamkeit der erfindungsgemäßen Verbindungen wurde anhand von L1210 Leukämiezellen der Maus getestet. Hierzu wurde die Koloniebildung von L1210 Leukämiezellen in Agarplatten herangezogen. Diese Methode dient zum Nachweis des Einflusses der Testsubstanzen auf das Wachstumsverhalten der Zellen über 1 Stunde oder über mehrere Generationen. Bei einer Zellzykluszeit von 10-12 Stunden werden dabei in der Testzeit von 7 Tagen etwa 14 aufeinanderfolgende Generationen beobachtet. Die erfindungsgemäßen zytostatisch wirksamen Substanzen bewirken in diesem Test eine Reduktion der zu beobachtenden Koloniezahl gegenüber einer unbehandelten Kontrollprobe.
Verfahrensweise zur Ermittlung der Koloniebildung von L1210 Leukämiezellen in Soft-Agar
500 Leukämiezellen pro Platte wurden mit unterschiedlichen Konzentrationen der Testsubstanz 1 Stunde bei 37°C inkubiert. Anschließend wurden die Zellen zweimal mit McCoy5A-Medium gewaschen und schließlich in Petrischalen nach Zugabe von 0,3 % Agar ausgegossen. Kontrollen wurden lediglich mit frischem Medium inkubiert. Anstelle der einstündigen Inkubation wurden in manchen Fällen unterschiedliche Konzentrationen der Testsubstanzen der oberen Agarschicht zugemischt, um so eine kontinuierliche Exposition der Zellen über die gesamte Inkubationszeit zu erreichen. Nach Erstarren des Agars wurden die Platten im Brutschrank 7 Tage bei 37°C inkubiert (5 Vol. -% CO₂, 95 % relative Luftfeuchtigkeit). Anschließend wurde die Zahl der entstandenen Kolonien mit einem Durchmesser von mehr als 60 µm gezählt. Die Ergebnisse wurden angegeben als Koloniezahl in behandelten Agarplatten in Prozent der unbehandelten Kontrolle. Aus der so erhaltenen Dosiswirkungskurve wurde die IC₅₀ als Maß für die Wirksamkeit der Substanz ermittelt. Die Ergebnisse für die hier beschriebenen Verbindungen im Vergleich zu Adriamycin sind in der nachfolgenden Tabelle 1 zusammengefaßt.
Die Struktur der hergestellten Verbindungen wurde mittels ¹H-NMR- Spektroskopie, UV-Spektroskopie und HPLC-Technik ermittelt. Der Verlauf der Reaktionen wurde, soweit möglich, dünnschichtchromatographisch auf Kieselgel-Fertigplatten verfolgt. Die Ergebnisse der Zytotoxizitäts-Testung gegen L1210-Zellen in vitro sind in Tabelle 1 zusammengefaßt. Tabelle 1

[2] = Stability / hydrolysis of the spacer-bearing anthracyclines in phosphate-buffered saline, HPLC analysis; type: physicochemical
Protocol: Die jeweilige Verbindung wurde bei einer Konzentration von 1 mg/ml in Acetonitril gelöst und mit Phosphat-gepufferter Kochsalzlösung pH 7.2 im Volumenverhältnis 1:100 verdünnt, wobei eine Konzentration von jeweils 10 µg/ml erhalten wurde. Diese Lösungen wurden jeweils bei 37 °C im Dunkeln inkubiert und 20 µl-Aliquote wurden nach definierten Zeiten mittels der HPLC-Technik untersucht. Die Stabilitäten dieser Verbindungen sind in Fig. 1 graphisch dargestellt.
Verbindung 10 wurde, wie vorstehend beschrieben, unrersucht und mittels HPLC-Technik analysiert.
Verbindung 12 wurde analog zu Verbindung 10 hydrolysiert, wobei jedoch ein pH-Wert von 7,4 verwendet wurde.

[3] = 1 h incubation at 37°C, then washed, colonies counted after 7 days
[4] = continuous exposure in agar, 7 days at 37°C, not differentiated by possible hydrolysis products (footnote a)
[5] = 10 µg/ml in phosphate-buffered saline pH 7.2, 37 °C, dark, releases β-Rhodomycin-I directly and via an intermediate

Molecule | IC₅₀-Werte gegenüber L1210-Zellen in vitro, 1h-Inkubation [1, 3] | IC₅₀-Werte gegenüber L1210-Zellen in vitro, Dauerinkubation [1, 4] | Hydrolyse [2, 5] | IC50 ([1]; L1210, 168 h, continuous exposure in agar, 7 days at 37°C, not differentiated by possible hydrolysis products (footnote a), read-out: IC₅₀-Werte gegenüber L1210-Zellen in vitro, Dauerinkubation) [µg/mL] | IC50 ([1]; L1210, 1 h incubation at 37°C, then washed, colonies counted after 7 days, read-out: IC₅₀-Werte gegenüber L1210-Zellen in vitro, 1h-Inkubation) [µg/mL] | Hydrolyse ([2]; as for Verbindung 10 but pH 7,4, 37 °C)
CC[C@@]1(O)C[C@H](O[C@H]2C[C@H](N(C)C)[C@H](O)[C@H](C)O2)c2c(O)c3c(c(O)c2[C@H]1O)C(=O)c1cccc(O)c1C3=O [β-Rhodomycin-I, 7-O-(α-L-Rhodosaminyl)-β-rhodomycinon, reference compound] | 0,05 µg/ml | 0,022 µg/ml | – | – | – | –
CC[C@@]1(O)C[C@H](O[C@H]2C[C@H](N(C)C)[C@H](OC(=O)CCN3C(=O)C=CC3=O)[C@H](C)O2)c2c(O)c3c(c(O)c2[C@H]1O)C(=O)c1cccc(O)c1C3=O [Verbindung 11, 7-O-[4′-O-(3-Maleimidopropionyl)-α-L-rhodosaminyl]-βrhodomycinon] | 0,11 µg/ml | 0,028 µg/ml | analoges Hydrolyseverhalten | – | – | –
CC[C@@]1(O)C[C@H](O[C@H]2C[C@H](N(C)C)[C@H](OC(=O)c3ccc(N4C(=O)C=CC4=O)cc3)[C@H](C)O2)c2c(O)c3c(c(O)c2[C@H]1O)C(=O)c1cccc(O)c1C3=O [Verbindung 8] | 0,5 µg/ml | 0,11 µg/ml | analoges Hydrolyseverhalten | – | – | –
COc1cccc2c1C(=O)c1c(O)c3c(c(O)c1C2=O)C[C@@](O)(C(=O)CO)C[C@@H]3O[C@H]1C[C@H](N)[C@H](O)[C@H](C)O1 [Adriamycin, reference compound] | – | – | – | 0.02 (≈ 0.0368 µM) | 0.04 (≈ 0.0736 µM) | –
CCC1(O)CC(OC2CC(N(C)C)C(OC(=O)c3ccc(N4C(=O)C=CC4=O)cc3OC(C)=O)C(C)O2)c2c(O)c3c(c(O)c2C1O)C(=O)c1cccc(O)c1C3=O [Verbindung 10, 7-O-[4′-O-(2-Acetoxy-4-maleimidobenzoyl)-α-L-rhodosaminyl]-β-rhodomycinon] | – | – | hydrolytisch zersetzt | – | – | –
4˝-O-(4-Maleimidobenzoyl)-cytorhodin-S [Verbindung 12] | 0,0095 µg/ml | 0,0028 µg/ml | – | – | – | analoges Hydrolyseverhalten
CC[C@@]1(O)C[C@H](O[C@H]2C[C@H](N(C)C)[C@H](O[C@H]3C[C@@H]4O[C@H]5CC(=O)[C@H](C)O[C@H]5O[C@@H]4[C@H](C)O3)[C@H](C)O2)c2c(O)c3c(c(O)c2[C@H]1O[C@H]1C[C@H](N(C)C)[C@H](O)[C@H](C)O1)C(=O)c1cccc(O)c1C3=O [Cytorhodin-S, reference compound] | 0,013 µg/ml | 0,003 µg/ml | – | – | – | –

Reference: patent publication EP0298385A2, “Cyctostatic anthracyclin derivatives” (BEHRINGWERKE Aktiengesellschaft, priority 1987, dated 1989)
